Data on 1 molecule can be found in patent US20240009174A1, “METHODS FOR DISRUPTING MITOCHONDRIAL UNFOLDED PROTEIN RESPONSE” (Health Research, Inc., priority 2020, published 2024).

Assay [1] concerns PC-3 (AR negative) xenografts. Nature of the assay: PC-3 xenograft in SCID mice. Particulars: 60 mg/kg bw. The format is in vivo. The method, then:
(§1) FIG. 8. Pharmacological inhibition of HSP60-ClpP inhibit oncogenic signaling and PCa tumor growth in vivo. (A) LNCaP, PC-3 and 22RV1 cells were treated with DCEM1 and analyzed for c-Myc and EZH2 protein expression after 24 hours of treatment. (B) LNCaP, 22RV1 and VCaP cells were treated with DCEM1 and analyzed for AR and PSA protein expression after 24 hours of treatment. (C-D) 22RV1 cells (1×10^6 cells) were mixed with matrigel (50:50 v/v) and injected into each flank of SCID mice and treated with DCEM1 (60 mg/kg bw) through IP route twice weekly and tumors were harvested, photographed (C) and weighed (D) at 30 days. (E) DEVDase activity were analyzed in 22RV1 xenograft tumor tissue following DCEM1 treatment and represented as fold change compared to control. (F) 22RV1 xenograft tissue were sectioned and expression of ki67, c-Myc and EZH2 proteins were analyzed by Immunohistochemistry as described in material and methods. (G-H) PC-3 cells (1×10^6 cells) were mixed with matrigel (50:50 v/v) and injected into each flank of SCID mice and treated with DCEM1 (60 mg/kg bw) through IP route twice weekly and tumors were harvested, photographed (G) and weighed (H) at 35 days. (I) DEVDase activity were analyzed in PC-3 xenograft tumor tissue following DCEM1 treatment and represented as fold change compared to control. (J) PC-3 xenograft tumor tissue were fixed and sections were used for in situ PLA to analyze HSP60-ClpP interaction in these tissue samples. […] All animals were sacrificed at 16 weeks of age and prostate tissue and tumors were harvested, whole cell lysate were prepared and analyzed for HSP60 and ClpP expression (N); c-Myc and EZH2 expression (0) and SYP and CK 8/18 expression (P) by immunoblotting. […]
(§2) Ablation of HSP60-ClpP interaction by DCEM1 downregulates c-Myc, EZH2 and AR as well as inhibits tumor growth in vivo. […] The effect of DCEM1 on 22RV1 (AR positive) and PC-3 (AR negative) xenografts growth in SCID mice was analyzed. […]

For assay [2], the system named is 22RV1 (AR positive) xenografts. Kind of assay: 22RV1 xenograft in SCID mice. The format is in vivo. Particulars: 60 mg/kg bw. The procedure: as §1, §2

With `CCOc1cc(CNCc2nc3ccccc3[nH]2)ccc1OCc1cccs1` [DCEM1], the “HSP60-ClpP interaction by in situ PLA in PC-3 xenograft tumors” value in assay [1] is reported as “inhibited HSP60-ClpP interaction”. Besides, in assay [1] (IP, twice weekly), the “caspase-3 (DEVDase) activity in PC-3 xenograft tumors” value is “induced”. The “tumor volume and weight, PC-3 xenografts” value in assay [1] (IP, twice weekly, 35 days) is “effectively inhibited”. Besides, the “caspase-3 (DEVDase) activity in 22RV1 xenograft tumors” value in assay [2] (IP, twice weekly) is on record as “induced”. Further, in assay [2] (IP, twice weekly, 30 days), the “tumor volume and weight, 22RV1 xenografts” value is reported as “effectively inhibited”. Also, the “expression of Ki67, c-Myc, EZH2 and AR in 22RV1 xenograft” value in assay [2] (immunohistochemistry) is “downregulated expression of Ki67, c-Myc, EZH2 and AR”.
